Reference: patent US20190076384A1, “METHODS FOR TREATING UREA CYCLE DISORDERS” (priority 2017, published 2019)
Like-named read-outs stand apart in the source and are kept apart here.

Experiments:
[1] = target: T1, CYP2C8 (Homo sapiens, UniProt P10632); experiment: In vitro CYP inhibition study, human liver microsomes, CYP2C8; assay type: in vitro ADME; conditions: Taxol 6α-hydroxylase, 5 mM
T1 construct: from tissue; host or cells: human liver microsomes
T1 sequence (P10632 1-490): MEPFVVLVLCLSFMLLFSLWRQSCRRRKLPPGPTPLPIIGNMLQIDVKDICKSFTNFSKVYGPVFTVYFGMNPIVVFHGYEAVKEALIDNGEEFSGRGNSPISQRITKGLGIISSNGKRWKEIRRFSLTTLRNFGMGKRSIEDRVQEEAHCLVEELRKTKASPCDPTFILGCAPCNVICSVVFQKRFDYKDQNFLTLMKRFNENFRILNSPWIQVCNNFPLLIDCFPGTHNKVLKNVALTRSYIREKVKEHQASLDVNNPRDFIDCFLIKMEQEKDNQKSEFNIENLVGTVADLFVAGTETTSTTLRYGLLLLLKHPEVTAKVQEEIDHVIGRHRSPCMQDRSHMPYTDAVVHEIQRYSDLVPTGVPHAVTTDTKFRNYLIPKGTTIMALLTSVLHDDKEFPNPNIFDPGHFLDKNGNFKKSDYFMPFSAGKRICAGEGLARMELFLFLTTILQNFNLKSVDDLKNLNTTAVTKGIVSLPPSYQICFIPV

[2] = target: Cytochrome P450 3A4 (Homo sapiens, UniProt P08684); experiment: clinical
Protocol: Methodology: This was a Phase 1, open-label, monosequence crossover, drug-drug interaction study of RAVICTI® and midazolam in healthy male and female subjects.
Single doses of midazolam HCl syrup (2 mg/mL) were administered in the morning following an approximate 10-hour fast on Days 1 and 5 (coadministered with RAVICTI® on Day 5) just prior to administration of breakfast (˜5 minutes before breakfast).
Pharmacokinetics: Blood samples for the analysis of plasma midazolam and its metabolite (1′-OH-midazolam, free+conjugates) levels were collected via an indwelling catheter and/or via direct venipuncture. Blood samples were collected on Days 1 and 5 at the following time points: predose, 0.5, 1, 2, 3, 4, 6, 8, 10, 12, 16, and 24 hours postdose. In addition, five plasma PK samples for GPB analysis were collected on Day 4 at the following time points: at 1 minute, 30 minutes, and 1 hour following the first morning dose of RAVICTI; at 30 minutes and 1 hour post second dose of RAVICTI.
Pharmacokinetics: The possible drug-drug interaction was examined between coadministration of RAVICTI and midazolam (test) and midazolam administered alone (reference). An analysis of variance (ANOVA), with treatment as a fixed effect and subject as a random effect, was performed. Data for Cmax, AUC0-t, and AUC0-∞, as appropriate, were natural log (ln)-transformed prior to analysis. The 90% confidence intervals (CIs) of the test group means relative to the reference group means were obtained by taking the antilog of the corresponding 90% CIs for the differences between the means on the log scale, i.e., ratio of geometric least-squares (LS) means.

[3] = Safety and tolerability of RAVICTI coadministered with midazolam; assay type: in vivo, human
Protocol: (§1) Safety: Safety and tolerability were assessed through adverse events (AEs), clinical laboratory results, physical examination findings, vital sign measurements, and electrocardiograms (ECGs).
(§2) Safety: Safety data were summarized by treatment and time point. Descriptive statistics (mean, standard deviation [SD], minimum, median, maximum, and sample size [N]) were calculated for quantitative safety data and frequency counts were compiled for classification of qualitative safety data. AE verbatim terms were mapped to preferred terms and system organ classes using the Medical Dictionary for Regulatory Activities (MedDRA®) (Version 16.1). Concomitant medications were coded with the World Health Organization (WHO) Dictionary version 1Mar. 2013.

[4] = Safety and tolerability of RAVICTI co-administered with celecoxib; assay type: in vivo, human
Protocol: as §1
as §2, with “18.0).” for “16.1).”, “2015.” for “2013.”

[5] = test system: CYP3A4/5; assay type: in vitro ADME, human; conditions: 5 mM
[6] = assay type: in vivo, human
[7] = target: T2, CYP1A2 (Homo sapiens, UniProt P05177); assay type: in vitro ADME; conditions: 7-ethoxyresorufin-O-deethylase, 5 mM
T2 construct: from tissue; host or cells: human liver microsomes
T2 sequence (P05177 1-516): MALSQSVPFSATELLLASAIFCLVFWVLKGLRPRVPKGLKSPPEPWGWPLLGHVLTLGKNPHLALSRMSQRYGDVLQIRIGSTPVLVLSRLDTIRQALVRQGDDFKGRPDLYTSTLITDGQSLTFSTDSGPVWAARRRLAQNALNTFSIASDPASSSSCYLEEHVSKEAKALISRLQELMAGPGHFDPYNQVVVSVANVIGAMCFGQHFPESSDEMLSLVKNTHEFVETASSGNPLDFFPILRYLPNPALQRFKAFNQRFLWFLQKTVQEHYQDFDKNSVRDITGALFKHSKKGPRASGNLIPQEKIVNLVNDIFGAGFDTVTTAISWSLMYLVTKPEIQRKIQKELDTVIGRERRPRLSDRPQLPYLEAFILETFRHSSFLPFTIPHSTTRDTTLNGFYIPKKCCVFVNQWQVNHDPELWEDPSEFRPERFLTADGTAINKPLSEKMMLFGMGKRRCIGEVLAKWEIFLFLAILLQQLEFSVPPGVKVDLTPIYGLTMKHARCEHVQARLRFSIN

[8] = RAVICTI coadministered with midazolam, 24 healthy subjects
[9] = RAVICTI co-administered with celecoxib, 28 healthy subjects

Sequence of Cytochrome P450 3A4 (P08684 whole entry): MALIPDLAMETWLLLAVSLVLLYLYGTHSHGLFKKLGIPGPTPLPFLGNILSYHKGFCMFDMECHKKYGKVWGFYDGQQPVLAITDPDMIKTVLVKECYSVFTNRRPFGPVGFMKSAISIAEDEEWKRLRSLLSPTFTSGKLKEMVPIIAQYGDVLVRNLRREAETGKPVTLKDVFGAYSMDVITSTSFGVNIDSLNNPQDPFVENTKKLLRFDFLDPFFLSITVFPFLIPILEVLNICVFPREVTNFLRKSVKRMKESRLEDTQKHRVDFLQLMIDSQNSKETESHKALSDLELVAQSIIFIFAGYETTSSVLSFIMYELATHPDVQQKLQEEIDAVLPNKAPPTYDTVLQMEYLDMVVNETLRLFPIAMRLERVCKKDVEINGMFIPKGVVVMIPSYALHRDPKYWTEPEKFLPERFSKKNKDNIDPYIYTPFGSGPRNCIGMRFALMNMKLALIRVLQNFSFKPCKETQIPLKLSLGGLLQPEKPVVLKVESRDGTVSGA

With O=C(CCCc1ccccc1)OCC(COC(=O)CCCc1ccccc1)OC(=O)CCCc1ccccc1 [RAVICTI, benzenebutanoic acid, 1′,1″-(1,2,3-propanetriyl) ester] the “% Inhibition” value ([1]; pre-incubation time 0 min) was 11%, the “% Inhibition” value ([1]; pre-incubation time 30 min) was 10% and the “drug-drug interaction by statistical analysis of Cmax, AUC0-t and AUC0-∞” value ([2]; RAVICTI metabolites with midazolam and 1′-OH-midazolam, 90% CIs outside 80 to […]) was “significant drug-drug interaction”. For the same compound, the “effect on CYP3A4 enzyme in vivo (conclusion)” value ([2]; steady-state RAVICTI, healthy subjects) was “weak inducer”, the “deaths, SAEs, discontinuations due to AEs” value [3, 8] was “no deaths, serious adverse events (SAEs), or subject discontinuations due to AEs” and the “subjects experiencing TEAEs” value [3, 8] was 6 subjects. The “total TEAEs” value [3, 8] was 10, the “safety and tolerability (conclusion)” value ([3]; oral RAVICTI coadministered with midazolam, healthy adults) was “safe and generally well tolerated” and the “deaths, SAEs, discontinuations due to AEs” value [4, 9] was “no deaths, SAEs, or subject discontinuations due to AEs”. For the same compound, the “subjects experiencing TEAEs” value [4, 9] was 8 subjects, the “total TEAEs” value [4, 9] was 23 and the “safety and tolerability (conclusion)” value ([4]; oral RAVICTI co-administered with celecoxib, healthy adults) was “safe and generally well tolerated”. The “% Inhibition” value ([5]; Midazolam 1′-hydroxylase, pre-incubation time 0 min) was 19%, the “% Inhibition” value ([5]; Midazolam 1′-hydroxylase, pre-incubation time 30 min) was 24% and the “% Inhibition” value ([5]; Testosterone 6β-hydroxylase, pre-incubation time 0 min) was 15%. The “% Inhibition” value ([5]; Testosterone 6β-hydroxylase, pre-incubation time 30 min) was 6%, the “Plasma glycerol phenylbutyrate concentrations” value ([6]; Day 4 samples, not quantifiable, LLOQ=1.00 ng/mL) was under 1.00 ng/mL and the “Intact glycerol phenylbutyrate in plasma” value ([6]; healthy subjects, RAVICTI oral) was “not detectable”. The “% Inhibition” value ([7]; pre-incubation time 0 min) was 5% and the “% Inhibition” value ([7]; pre-incubation time 30 min) was 8%.
